# From patent US20250002555A1, “METHODS FOR THERAPY AND REHABILITATION OF MOVEMENT DISORDERS” (City University of Hong Kong, priority 2023, published 2025)
# Where “and” joins values, the source holds several entries; their conditions need not be identical. Equal values may be shown once.
# How the values were obtained:
# [1] = molecular target: T1, CCKBRs in the motor cortex (Mus musculus, UniProt P56481); assay: Single pellet reaching task with CCKBR antagonist injected into the motor cortex; format: in vivo, C57BL/6 mice; details: for success rate: 1 μl 20 μM into motor cortex via cannula before training
# T1 construct: from tissue; host or cells: motor cortex of living C57BL/6 mice
# T1 sequence (P56481 1-453): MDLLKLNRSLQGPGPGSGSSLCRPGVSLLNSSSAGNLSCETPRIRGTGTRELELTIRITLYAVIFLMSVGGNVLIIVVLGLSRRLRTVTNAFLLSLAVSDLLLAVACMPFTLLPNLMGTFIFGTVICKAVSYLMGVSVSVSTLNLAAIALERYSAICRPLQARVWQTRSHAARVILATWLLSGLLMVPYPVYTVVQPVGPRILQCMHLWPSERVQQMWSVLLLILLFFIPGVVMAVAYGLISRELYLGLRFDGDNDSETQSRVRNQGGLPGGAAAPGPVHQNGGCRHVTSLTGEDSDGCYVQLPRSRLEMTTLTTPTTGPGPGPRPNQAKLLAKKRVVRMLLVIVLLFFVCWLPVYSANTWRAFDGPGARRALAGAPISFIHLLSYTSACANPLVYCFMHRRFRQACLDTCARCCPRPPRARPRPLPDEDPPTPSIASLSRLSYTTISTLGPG
# Description: (§1) The task has two periods, shaping and training. […] Only attempts by the dominant hand are counted.
# C57BL/6 mice are implanted a cannula in the motor cortex (coordinates: AP, 1.4 mm, ML, −/+1.6 mm, DV, 0.2 mm) contralateral to the dominant hand of the mice, followed by three days of recovery. Mice are grouped into antagonist and vehicle groups. L365,260 (CCKBR antagonist) (1 μl, 20 μM, Cat #2767, Bio-Techne, https://www.bio-techne.com/, USA) or vehicle (0.1% DMSO dissolved in ACSF) is injected into the motor cortex through the cannula with the flow rate of 100 nl/min pumped by a syringe pump (Hamilton, http://hamiltoninstrument.com, USA), before the mice are placed into the chamber for the single pellet reaching task training.
# [2] = test system: neurons in the motor cortex layer 2/3; assay: Calcium imaging of layer 2/3 of the motor cortex during single pellet reaching task training; format: in vivo, C57BL/6 mice; details: for activated population activity (peak activity minus baseline activity): C57BL/6 mice injected with L365,260 (0.4 mg/kg i.p.); for pairwise Hausdorff distance of trajectories / trial-to-trial population activity correlation (Pearson correlation coefficient): C57BL/6 mice injected with L365,260
# Description: as §1
# The surface virus infusion process for the calcium imaging is performed as described previously with mild modification^5. A wide-tip glass pipette is prepared by a micropipette puller and then cut, polished, and flame-treated to make it even and smooth. Mice are […] injected with dexamethasone (0.2 mg/kg, s.c.) and carprofen (5 mg/kg, s.c.) to protect the brain from swelling and inflammation. Three hours later, mice are anesthetized with pentobarbital. The periosteum covered on the skull is removed, cleaned, and dried with 100% alcohol to prevent the skull and tissues from growing. A 3×3 mm^2 window above the motor cortex contralateral to the dominant hand is opened with a hand drill, and the bone debris is carefully removed with fine forceps. After that, the dura around the injection area is removed (open a dura hole of about 1 mm^2) to expose the pial tissue for virus infusion. The tip of the pipette tightly covered the brain surface by lowering 400-500 μm, and 0.6 μl virus is infused at the speed of 0.06 μl/min. A 3×3 cover glass (thickness, around 150 μm) is attached to the brain surface, and gentle pressure is applied to keep the cover glass at the level same as the skull. The edge of the cover glass is sealed with superglue. After the glue is totally hardened, the skin is stretched back and sutured.
# 2-3 weeks after cranial window implantation, the scalp over the skull is totally removed with surgical scissors. […] The cover glass surface is gently cleaned with Ringer's solution and lens paper, and the regrowth of periosteum on the skull is removed with fine forceps. Before baseplate implantation, the skull is dried with 100% alcohol, covered with Metbondglue, and a thick layer of dental acrylic except for the cover glass for observation.
# The LED is turned on and the focal distance of the electrowetting lens is adjusted to 0 on the software. The position of the miniscope is adjusted until the brain tissue is observed in the data acquisition system. Dental acrylic is used to fix the baseplate to the acrylic cap covering the skull around the window. Once the dental acrylic has hardened, the miniscope is removed, and a metal cap is attached to the baseplate to protect the cover glass window.
# After the implantation of the baseplate, a miniscope model is attached to the baseplate, and the mouse is placed in the chamber to acclimate to the weight of the miniscope for 20 minutes for 3 days. The LED laser and focal plate are slightly adjusted until the cells with fluorescent protruded from the background. A web camera is also connected to the data acquisition software and recorded the behavior movement of the animal simultaneously. An imaging field of about 1.0×1.0 mm^2 (resolution: 608×608 pixels) video at approximately 10 min long is recorded. To clearly figure out the role of CCK played in the neuronal plasticity of the motor cortex from CCK^−/− mice, C57BL/6 mice as well as C57BL/6 mice that intraperitoneal injection of CCKBR antagonist, L365,260 (0.4 mg/kg, Cat #2767, Bio-Techne, https://www.bio-techne.com, USA). Raw AVI videos are firstly spatially down-sample by two folds to reduce the size of the videos by Fiji (Image J, https://imagej.net/imagej-wiki-static/Fiji/Downloads, USA). Then a MATLAB algorithm, NoRMCorre, is applied for piecewise rigid motion correction before data analysis. The calcium signals are extracted with the MATLAB code of Constrained Nonnegative Matrix Factorization for microEndoscopic (CNMF-E) (code availability: https://github.com/zhoupc/CNMF_E) 6. The scaled fluorescent calcium signal overtime is extracted as C_raw. The raw data is then deconvolved. […] Timestamps from both the behavior videos and the calcium imaging videos are aligned to find out the time window when the mouse perform the reaching task. […]
# [3] = test system: motor cortex brain slices from the CCK^−/− mice; assay: Brain slice electrophysiology, fEPSP/LTP after HFS in motor cortex slices; format: cell-based; details: CCK4 500 nM, % of baseline
# Description: The slice electrophysiology experiment is carried out following the methods reported previously^9. In the experiments, 6-8 weeks old C57BL/6 or CCK^−/− mice are anesthetized with isoflurane in a small chamber. The mouse head is cut, and the brain is rapidly removed and put into an oxygenated (95% O2-5% CO2) artificial cerebral spinal fluid (ACSF) cold bath containing 26 mM of NaHCO3, 2 mM of CaCl2), 1.25 mM of KH2PO4, 1.25 mM of MgSO4, 124 mM of NaCl, 3 mM of KCl and 10 mM of glucose, pH 7.35-7.45. The brain is sectioned from the middle line into two hemispheres. The portions with the brain areas of the motor cortex are trimmed and glued on the ice-cold stage of a vibrating tissue slicer (VT1000S, Leica, https://www.gmi-inc.com/product/leica-vt1000s-microtome, Germany). Coronal sections of slices containing the motor cortex (300 μm thick) are trimmed and gently transferred into an ACSF containing chamber, which is put in a water bath at 28° C. and oxygen blowing continuously. […]
# After recovery, the motor cortex slice is covered by the recording electrodes. […] The electrophysiological data are extracted and analyzed with offline software, Mobius software. For quantification of the LTP data, the initial amplitudes of fEPSPs are normalized and expressed as percentage changes over the averaged baseline activity. […]
# [4] = test system: CCK^−/− mice; assay: Rescue of motor learning ability of CCK^−/− mice with CCK4, single pellet reaching task; format: in vivo; details: for success rate: CCK4 0.45 mg/kg i.p. every day before training; for miss rate: CCK4 0.45 mg/kg i.p.
# Source text: as §1
# CCK4, a tetrapeptide derived from the peptide of CCK is selected as a potential drug to rescue the motor learning defect caused by the lack of CCK, because CCK4 remains the function to activate the CCK receptor but has a much smaller molecule than CCK8s or CCK58, making it transmit through the brain-blood barrier easily and smoothly^10-11. Therefore, intraperitoneal injection of the CCK4 is a simple and easily available way to rescue CCK lack caused motor learning defects. After shaping, CCK^−/− mice are injected intraperitoneally with CCK4 (0.45 mg/kg, Cat #ab141328, Abcam, https://securedrtest.abcam.com, UK) or vehicle before training every day.
compound,measurement,setting,value
"Cc1cccc(NC(=O)N[C@@H]2N=C(c3ccccc3)c3ccccc3N(C)C2=O)c1 [L365,260]",success rate,[1]; Day 3,16.80±2.83%
same,success rate,[1]; Day 4,18.16±3.12%
same,"success rate of pellet retrieval, change through the 6-day training period",[1]; infused into motor cortex every day before training,not improved
same,"drop rate, change Day 1 vs. Day 5",[1]; motor cortex injection,no significant changes
same,miss rate,"[1]; motor cortex injection, Day 1",27.34%±9.85%
same,"number of miss, change with learning","[1]; motor cortex injection, Day 1 vs. Day 5",no significant decrease
same,miss rate,"[1]; motor cortex injection, Day 5",24.75%±2.34%
same,no-grasp rate,"[1]; motor cortex injection, Day 5",34.69%±4.12%
same,activated population activity (peak activity minus baseline activity),[2]; Day 1,0.0218±0.0094
same,activated population activity (peak activity minus baseline activity),[2]; Day 6,0.0354±0.0080
same,pairwise Hausdorff distance of trajectories,[2]; Day 1,0.7012±0.0594 cm
same,trial-to-trial population activity correlation (Pearson correlation coefficient),[2]; Day 1,0.12±0.07
same,pairwise Hausdorff distance of trajectories,[2]; Day 6,0.6712±0.0659 cm
same,trial-to-trial population activity correlation (Pearson correlation coefficient),[2]; Day 6,0.12±0.05
Trp-Met-Asp-Phe-NH2 [CCK4],average normalized fEPSP amplitude,[3]; after HFS (50-60 min),118.89%±6.09%
same,average normalized fEPSP amplitude,[3]; before HFS (−10-0 min),100.28%±0.47%
same,success rate,[4]; Day 1,19.17%±3.03%
same,success rate,"[4]; Day 5, 0.45 mg/kg",30.58%±4.18% and 30.51%±4.18%
same,success rate,[4]; Day 6,31.50%±4.43%
same,miss rate,[4]; Day 1,25.47%±4.03%
same,miss rate,[4]; Day 5,13.13%±2.80
same,brain-blood barrier passage,[4]; concluded from behavioural rescue after i.p. injection,could cross the brain-blood barrier
